Where “and” joins values, the source holds several entries; their conditions need not be identical. Equal values may be shown once. Calls of active or inactive are those of the source. No rule for the calls is given here.
Test system: rodent lifetime carcinogenesis bioassay, tumor incidence TD50
Assay: chronic cancer bioassays in animals – CPDB, compiled studies (AID 1745844)

`C=C(Cl)Cl` was tested, and the TD50 (mouse, strain B6C3F1, females, by gavage, site: all sites, lesion: leukemia + lymphoma, dosed 104 weeks, study length 104 weeks) was 3.9 mg/kg/day (inactive), the TD50 (mouse, strain B6C3F1, females, by gavage, site: all sites, lesion: lymphoma, dosed 104 weeks, study length 104 weeks) was 4.02 mg/kg/day and the TD50 (mouse, strain B6C3F1, females, by gavage, site: any site (literature study), lesion: several types, types named in the paper, dosed 104 weeks, study length 104 weeks) was 2.09 mg/kg/day. The TD50 (mouse, strain B6C3F1, females, by gavage, site: lung, lesion: alveolar/bronchiolar adenoma + alveolar/bronchiolar carcinoma, dosed 104 weeks, study length 104 weeks) was 66.7 mg/kg/day, the TD50 (mouse, strain B6C3F1, males, by gavage, site: any site (literature study), lesion: several types, types named in the paper, dosed 104 weeks, study length 104 weeks) was 34.8 mg/kg/day (inactive) and the TD50 (mouse, strain B6C3F1, males, by gavage, site: liver, lesion: hepatocellular adenoma + hepatocellular carcinoma + neoplastic nodule, dosed 104 weeks, study length 104 weeks) was 133 mg/kg/day. For the same compound, the TD50 (mouse, strain B6C3F1, males, by gavage, site: lung, lesion: alveolar/bronchiolar adenoma + alveolar/bronchiolar carcinoma, dosed 104 weeks, study length 104 weeks) was 60.4 mg/kg/day, the carcinogen call (mouse, strain Charles River CD1, females, inhaled, site: liver, lesion: hemangiosarcoma, dosed 26 weeks, study length 78 weeks) was “negative (inactive)” and the TD50 (mouse, strain Charles River CD1, females, inhaled, site: liver, lesion: hemangiosarcoma, dosed 52 weeks, study length 52 weeks) was 170 mg/kg/day. For the same compound, the carcinogen call (mouse, strain Charles River CD1, females, inhaled, site: liver, lesion: hepatocellular tumor, dosed 26 weeks, study length 78 weeks) was “negative (inactive)”, the TD50 (mouse, strain Charles River CD1, females, inhaled, site: liver, lesion: hepatoma, dosed 52 weeks, study length 52 weeks) was 170 mg/kg/day and the carcinogen call (mouse, strain Charles River CD1, females, inhaled, site: lung, lesion: alveolar/bronchiolar tumor, dosed 26 weeks, study length 78 weeks) was “negative (inactive)”. The carcinogen call (mouse, strain Charles River CD1, males, inhaled, site: liver, lesion: hepatocellular tumor, dosed 26 weeks, study length 78 weeks) was “negative (inactive)”, the carcinogen call (mouse, strain Charles River CD1, males, inhaled, site: lung, lesion: alveolar/bronchiolar tumor, dosed 26 weeks, study length 78 weeks) was “negative (inactive)” and the TD50 (mouse, strain Swiss, females, inhaled, site: any site (literature study), lesion: malignant tumor, dosed 52 weeks, study length 126 weeks) was 86.1 mg/kg/day. For the same compound, the TD50 (mouse, strain Swiss, females, inhaled, site: any site (literature study), lesion: several types, types named in the paper, dosed 52 weeks, study length 126 weeks) was 30.9 mg/kg/day, the TD50 (mouse, strain Swiss, females, inhaled, site: liver, lesion: hepatoma, dosed 52 weeks, study length 126 weeks) was 858 mg/kg/day and the TD50 (mouse, strain Swiss, females, inhaled, site: lung, lesion: several types, types named in the paper, dosed 52 weeks, study length 126 weeks) was 124 mg/kg/day. It also gave a TD50 (mouse, strain Swiss, females, inhaled, site: mammary gland, lesion: several types, types named in the paper, dosed 52 weeks, study length 126 weeks) of 80.9 mg/kg/day, a TD50 (mouse, strain Swiss, males, inhaled, site: any site (literature study), lesion: malignant tumor, dosed 52 weeks, study length 126 weeks) of 50.3 mg/kg/day and a TD50 (mouse, strain Swiss, males, inhaled, site: any site (literature study), lesion: several types, types named in the paper, dosed 52 weeks, study length 126 weeks) of 17.9 mg/kg/day. For the same compound, the TD50 (mouse, strain Swiss, males, inhaled, site: kidney, lesion: adenocarcinoma, dosed 52 weeks, study length 126 weeks) was 22 mg/kg/day, the TD50 (mouse, strain Swiss, males, inhaled, site: liver, lesion: angiosarcoma, dosed 52 weeks, study length 126 weeks) was 566 mg/kg/day and the TD50 (mouse, strain Swiss, males, inhaled, site: lung, lesion: several types, types named in the paper, dosed 52 weeks, study length 126 weeks) was 59.9 mg/kg/day. For the same compound, the carcinogen call (rat, strain Charles River CD (Sprague-Dawley), females, inhaled, site: liver, lesion: several types, types named in the paper, dosed 26 weeks, study length 78 weeks) was “negative (inactive)”, the carcinogen call (rat, strain Charles River CD (Sprague-Dawley), females, inhaled, site: liver, lesion: several types, types named in the paper, dosed 43 weeks, study length 95 weeks) was “negative (inactive)” and the carcinogen call (rat, strain Charles River CD (Sprague-Dawley), males, inhaled, site: liver, lesion: several types, types named in the paper, dosed 26 weeks, study length 78 weeks) was “negative (inactive)”. The carcinogen call (rat, strain Charles River CD (Sprague-Dawley), males, inhaled, site: liver, lesion: several types, types named in the paper, dosed 43 weeks, study length 95 weeks) was “negative (inactive)”, the carcinogen call (rat, strain Fischer 344, females, by gavage, site: any site (literature study), lesion: several types, types named in the paper, dosed 104 weeks, study length 104 weeks) was “negative (inactive)” and the carcinogen call (rat, strain Fischer 344, males, by gavage, site: any site (literature study), lesion: several types, types named in the paper, dosed 104 weeks, study length 104 weeks) was “negative (inactive)”. For the same compound, the TD50 (rat, strain Sprague-Dawley Spartan, females, in drinking water, site: liver, lesion: hepatocellular carcinoma, dosed 104 weeks, study length 104 weeks) was 654 mg/kg/day (inactive), the TD50 (rat, strain Sprague-Dawley Spartan, females, in drinking water, site: liver, lesion: neoplastic nodule, dosed 104 weeks, study length 104 weeks) was 414 mg/kg/day (inactive) and the TD50 (rat, strain Sprague-Dawley Spartan, females, in drinking water, site: mammary gland, lesion: fibroadenoma, dosed 104 weeks, study length 104 weeks) was 679 mg/kg/day (inactive). For the same compound, the carcinogen call (rat, strain Sprague-Dawley Spartan, females, in drinking water, site: pituitary gland, lesion: adenoma, dosed 104 weeks, study length 104 weeks) was “negative (inactive)”, the carcinogen call (rat, strain Sprague-Dawley Spartan, females, inhaled, site: liver, lesion: cholangioma, dosed 78 weeks, study length 104 weeks) was “negative (inactive)” and the TD50 (rat, strain Sprague-Dawley Spartan, females, inhaled, site: mammary gland, lesion: adenocarcinoma, dosed 78 weeks, study length 104 weeks) was 49.8 mg/kg/day (inactive). For the same compound, the TD50 (rat, strain Sprague-Dawley Spartan, females, inhaled, site: mammary gland, lesion: fibroadenoma, dosed 78 weeks, study length 104 weeks) was 16 mg/kg/day (inactive), the TD50 (rat, strain Sprague-Dawley Spartan, males, in drinking water, site: liver, lesion: hepatocellular carcinoma, dosed 104 weeks, study length 104 weeks) was 22900 mg/kg/day (inactive) and the carcinogen call (rat, strain Sprague-Dawley Spartan, males, in drinking water, site: liver, lesion: neoplastic nodule, dosed 104 weeks, study length 104 weeks) was “negative (inactive)”. For the same compound, the carcinogen call (rat, strain Sprague-Dawley Spartan, males, inhaled, site: liver, lesion: sarcoma, dosed 78 weeks, study length 104 weeks) was “negative (inactive)”, the TD50 (rat, strain Sprague-Dawley, females, by gavage, site: liver, lesion: angiosarcoma, dosed 52 weeks, study length 136 weeks) was 0.501 mg/kg/day and the TD50 (rat, strain Sprague-Dawley, females, inhaled, site: any site (literature study), lesion: several types, types named in the paper, dosed 104 weeks, study length 150 weeks) was 119 mg/kg/day. The TD50 (rat, strain Sprague-Dawley, females, inhaled, site: liver, lesion: several types, types named in the paper, dosed 104 weeks, study length 150 weeks) was 847 mg/kg/day and the TD50 (rat, strain Sprague-Dawley, males, by gavage, site: any site (literature study), lesion: several types, types named in the paper, dosed 52 weeks, study length 136 weeks) was 5.32 mg/kg/day.

`O=NN1CCC[C@H]1C(=O)O` was tested, and the TD50 (rat, strain MRC, females, in drinking water, site: any site (literature study), lesion: several types, types named in the paper, dosed 75 weeks, study length 104 weeks) was 6.69 mg/kg/day (inactive) and the carcinogen call (rat, strain MRC, males, in drinking water, site: any site (literature study), lesion: several types, types named in the paper, dosed 75 weeks, study length 104 weeks) was “negative (inactive)”.

With `Oc1c(Cl)cc(Cl)c(Cl)c1Cc1c(O)c(Cl)cc(Cl)c1Cl` the carcinogen call (mouse, strain C57BL, females, in feed, site: any site (literature study), lesion: several types, types named in the paper, dosed 104 weeks, study length 104 weeks) was “negative (inactive)”, the TD50 (mouse, strain C57BL, females, in feed, site: liver, lesion: hepatoma, dosed 104 weeks, study length 104 weeks) was 434 mg/kg/day (inactive) and the TD50 (mouse, strain C57BL, males, in feed, site: any site (literature study), lesion: several types, types named in the paper, dosed 104 weeks, study length 104 weeks) was 900 mg/kg/day (inactive). The carcinogen call (mouse, strain C57BL, males, in feed, site: liver, lesion: one or several types, types not named, dosed 104 weeks, study length 104 weeks) was “negative (inactive)”, the carcinogen call (mouse, strain C57BL, males, in feed, site: lung, lesion: one or several types, types not named, dosed 104 weeks, study length 104 weeks) was “negative (inactive)” and the TD50 (mouse, strain XVII/G, females, in feed, site: any site (literature study), lesion: several types, types named in the paper, dosed 104 weeks, study length 104 weeks) was 39.4 mg/kg/day (inactive). For the same compound, the carcinogen call (mouse, strain XVII/G, females, in feed, site: liver, lesion: one or several types, types not named, dosed 104 weeks, study length 104 weeks) was “negative (inactive)”, the TD50 (mouse, strain XVII/G, females, in feed, site: lung, lesion: one or several types, types not named, dosed 104 weeks, study length 104 weeks) was 33.4 mg/kg/day (inactive) and the TD50 (mouse, strain XVII/G, males, in feed, site: any site (literature study), lesion: several types, types named in the paper, dosed 104 weeks, study length 104 weeks) was 17.8 mg/kg/day (inactive). For the same compound, the TD50 (mouse, strain XVII/G, males, in feed, site: liver, lesion: adenoma, dosed 104 weeks, study length 104 weeks) was 450 mg/kg/day (inactive), the TD50 (mouse, strain XVII/G, males, in feed, site: lung, lesion: one or several types, types not named, dosed 104 weeks, study length 104 weeks) was 17.8 mg/kg/day (inactive) and the carcinogen call (rat, strain Fischer 344, females, in feed, site: any site (literature study), lesion: several types, types named in the paper, dosed 106 weeks, study length 106 weeks) was “negative (inactive)”. For the same compound, the TD50 (rat, strain Fischer 344, males, in feed, site: any site (literature study), lesion: several types, types named in the paper, dosed 106 weeks, study length 106 weeks) was 30.4 mg/kg/day, the TD50 (rat, strain Fischer 344, males, in feed, site: subcutaneous tissue, lesion: fibrosarcoma, dosed 106 weeks, study length 106 weeks) was 41.3 mg/kg/day (inactive) and the TD50 (rat, strain Fischer 344, males, in feed, site: tunica vaginalis, lesion: mesothelioma, NOS, dosed 106 weeks, study length 106 weeks) was 57.5 mg/kg/day.

`O=NN1CN2CN(C1)CN(N=O)C2` was tested, and the carcinogen call (rat, strain CB, males, i.p., site: liver, lesion: hepatoma, dosed 26 weeks, study length 100 weeks) was “negative (inactive)”.

Compound `CC(=O)Nc1nc(-c2ccc([N+](=O)[O-])o2)cs1` has a TD50 (hamster, strain Syrian Golden, males, in feed, site: forestomach, lesion: squamous-cell papilloma, dosed 48 weeks, study length 70 weeks) of 68.1 mg/kg/day, a TD50 (hamster, strain Syrian Golden, males, in feed, site: urinary bladder, lesion: several types, types named in the paper, dosed 48 weeks, study length 70 weeks) of 8.91 mg/kg/day and a TD50 (hamster, strain Syrian Golden, males, in feed, site: urinary bladder, lesion: squamous-cell carcinoma, dosed 48 weeks, study length 70 weeks) of 60.2 mg/kg/day. For the same compound, the TD50 (rat, strain Sprague-Dawley, females, in feed, site: kidney/pelvis, lesion: transitional-cell carcinoma, dosed 46 weeks, study length 66 weeks) was 316 mg/kg/day and 660 mg/kg/day, the TD50 (rat, strain Sprague-Dawley, females, in feed, site: mammary gland, lesion: adenocarcinoma, dosed 46 weeks, study length 66 weeks) was 36.2 mg/kg/day and the TD50 (rat, strain Sprague-Dawley, females, in feed, site: mammary gland, lesion: fibroadenoma, dosed 46 weeks, study length 66 weeks) was 56.9 mg/kg/day and 25 mg/kg/day and 30.2 mg/kg/day. For the same compound, the TD50 (rat, strain Sprague-Dawley, females, in feed, site: mammary tissue, wider than the gland, lesion: several types, types named in the paper, dosed 46 weeks, study length 66 weeks) was 10.5 mg/kg/day.

`ClCc1cccnc1` was tested, and the TD50 (mouse, strain B6C3F1, females, by gavage, site: any site (literature study), lesion: several types, types named in the paper, dosed 91 weeks, study length 104 weeks) was 141 mg/kg/day, the TD50 (mouse, strain B6C3F1, females, by gavage, site: liver, lesion: hepatocellular adenoma + hepatocellular carcinoma + neoplastic nodule, dosed 91 weeks, study length 104 weeks) was 16300 mg/kg/day and the TD50 (mouse, strain B6C3F1, females, by gavage, site: lung, lesion: alveolar/bronchiolar adenoma + alveolar/bronchiolar carcinoma, dosed 91 weeks, study length 104 weeks) was 1970 mg/kg/day. It also gave a TD50 (mouse, strain B6C3F1, females, by gavage, site: stomach, lesion: squamous-cell carcinoma + squamous-cell papilloma, dosed 91 weeks, study length 104 weeks) of 394 mg/kg/day, a TD50 (mouse, strain B6C3F1, males, by gavage, site: any site (literature study), lesion: several types, types named in the paper, dosed 91 weeks, study length 104 weeks) of 64.9 mg/kg/day and a TD50 (mouse, strain B6C3F1, males, by gavage, site: liver, lesion: hepatocellular adenoma + hepatocellular carcinoma + neoplastic nodule, dosed 91 weeks, study length 104 weeks) of 324 mg/kg/day. For the same compound, the TD50 (mouse, strain B6C3F1, males, by gavage, site: lung, lesion: alveolar/bronchiolar adenoma + alveolar/bronchiolar carcinoma, dosed 91 weeks, study length 104 weeks) was 624 mg/kg/day, the TD50 (mouse, strain B6C3F1, males, by gavage, site: stomach, lesion: squamous-cell carcinoma + squamous-cell papilloma, dosed 91 weeks, study length 104 weeks) was 161 mg/kg/day and the TD50 (rat, strain Fischer 344, females, by gavage, site: any site (literature study), lesion: several types, types named in the paper, dosed 93 weeks, study length 104 weeks) was 160 mg/kg/day (inactive). For the same compound, the TD50 (rat, strain Fischer 344, males, by gavage, site: stomach, lesion: squamous-cell carcinoma + squamous-cell papilloma, dosed 93 weeks, study length 104 weeks) was 433 mg/kg/day.
